The values below come from the SangsterLogP compilation.

A short description of the series: method code SF-AS, from DOI: 10.1016/0048-3575(79)90081-6.

The structures appear in SMILES notation.

For the compound `O=C1CCC(=O)N1c1ccccc1Br`, the logP (in general, the decadic logarithm of the partition coefficient of the neutral form, usually between octanol and water) was 0.65.

As to `O=C1CCC(=O)N1c1ccc(Cl)cc1`, the log partition coefficient (logP) was 0.96.

On to `Cc1cccc(N2C(=O)CCC2=O)c1`, for which the logP is 0.57.

The compound `COC(=O)c1cccc(N2C(=O)CCC2=O)c1` came in with a logP of 0.36.

Regarding `O=C1CCC(=O)N1c1cccc(Br)c1`, the lipophilicity (logP) was 1.09.

On to `CCc1ccccc1N1C(=O)CCC1=O`, for which the logP turned out to be 0.64.

`Cc1ccccc1N1C(=O)CCC1=O` registered a log partition coefficient (logP) of 0.29.

`COc1ccccc1N1C(=O)CCC1=O` came in with a logP of -0.02.

For the compound `O=C1CCC(=O)N1c1cccc(I)c1`, the log distribution coefficient (logD) (commonly the decadic logarithm of the distribution of all forms, ionised or not, between an organic phase and buffer at a given pH) (pH 7.4) came out at 1.39.

`O=C1CCC(=O)N1c1ccccc1Cl` yielded a logP of 0.56.

Compound `O=C1CCC(=O)N1c1ccccc1C(F)(F)F` gave a logP of 0.76.

Consider `O=C1CCC(=O)N1c1ccccc1[N+](=O)[O-]`, for which the logP worked out at 0.36.

Compound `CCc1cccc(N2C(=O)CCC2=O)c1` had a logP of 1.04.

Compound `N#Cc1cccc(N2C(=O)CCC2=O)c1` displayed a logP of 0.02.

`Cc1ccc(N2C(=O)CCC2=O)cc1` showed a logP of 0.58.

With `O=C1CCC(=O)N1c1ccccc1F`, the logP stood at 0.22.

`O=C1CCC(=O)N1c1ccc(F)cc1` gave a log partition coefficient (logP) of 0.29.

In turn, `O=C1CCC(=O)N1c1ccccc1` registered a logP of 0.06.

For `O=C1CCC(=O)N1c1ccccc1I`, the logP is 0.8.

`O=C1CCC(=O)N1c1cccc(Cl)c1` gave a logP of 0.98.

On to `O=C1CCC(=O)N1c1cccc(F)c1`, for which the logP stood at 0.38.

Compound `O=C1CCC(=O)N1c1ccc([N+](=O)[O-])cc1` showed a logP of 0.46.

As to `O=C1CCC(=O)N1c1cccc([N+](=O)[O-])c1`, the logP is 0.38.

With `CCc1ccc(N2C(=O)CCC2=O)cc1`, the logP turned out to be 1.1.

On to `O=C1CCC(=O)N1c1ccc(Br)cc1`, for which the logP amounted to 1.18.
